Data as given in patent publication US20010041682A1, “Dinucleotides useful for the treatment of lung disease” (priority 1995, published 2001).

Tests used:
[1] = tested on: Cultured airway epithelia; test: Cl− secretion by cultured airway epithelia, UTP compared with U2P4 (Example 2); format: cell-based; settings: for Mean Cl− secretion Induced: 10^−4 M on mucosal surface, tissues pretreated with amiloride (10^−4 M); for Effectiveness (efficacy) on Cl− secretion, UTP compared with U2P4: 10^−4 M, the highest concentration tested, amiloride (10^−4 M) pretreated
Procedure: (§1) Normal airway cells were cultured on permeable supports and Cl^− secretion assayed as previously described in M. J. Stutts, et al., Am. J. Physiol. 267, C1442-C1451 (1994). Cl^− secretion was measured after administration of the dinucleotide A2P4 (Sigma Chemicals, St. Louis, Mo.). Amiloride was added to block airway epithelial sodium absorption.
Studies were carried out according to the method described in Example 1 to compare the effectiveness (efficacy) of UTP and U2P4. Cultured airway epithelia were exposed to a concentration of from 10^−9 M to […] of either UTP or U2P4 in 6 ml of solution circulating over the mucosal surface. The tissues were pretreated with amiloride (10^−4 M) to block Na^+ absorption. Under these conditions, the current generated by the tissues is due to Cl^− secretion. UTP and U2P4 induced a similar pattern of Cl^− secretion. At 10^−4 M, the highest concentration tested, UTP and U2P4 were equieffective (equiefficacious).

airway epithelia = test: Cl− secretion by cultured normal airway cells on permeable supports (Example 1); format: cell-based
Procedure: as §1
Moreover, the administration of A2P4 had no effect on Cl^− secretion in airway epithelia pre-stimulated with UTP, which is known to activate non-CFTR Cl^− channels. […] Stimulation of this receptor is thus a therapeutic strategy for certain lung diseases, including cystic fibrosis.

| Compound | Mean Cl− secretion Induced [1] | Effectiveness (efficacy) on Cl− secretion, UTP compared with U2P4 [1] | Effect on Cl− secretion (airway epithelia; airway epithelia pre-stimulated with UTP) | Effect on Cl− secretion (airway epithelia; exposed to the basolateral surface of the airway epithelial preparation, amiloride added) | Effect on Cl− secretion (airway epithelia; luminal surface, airway epithelia treated with forskolin, amiloride added) |
| --- | --- | --- | --- | --- | --- |
| O=c1ccn([C@@H]2O[C@H](COP(=O)(O)OP(=O)(O)OP(=O)(O)OP(=O)(O)OC[C@H]3O[C@@H](n4ccc(=O)[nH]c4=O)[C@H](O)[C@@H]3O)[C@@H](O)[C@H]2O)c(=O)[nH]1 [U2P4, UppppU] | 43.8 μA/cm^2 | equieffective | – | – | – |
| Nc1ncnc2c1ncn2[C@@H]1O[C@H](COP(=O)(O)OP(=O)(O)OP(=O)(O)OP(=O)(O)OC[C@H]2O[C@@H](n3cnc4c(N)ncnc43)[C@H](O)[C@@H]2O)[C@@H](O)[C@H]1O [A2P4] | – | – | no effect | little effect | stimulated additional Cl^− secretion |
| O=c1ccn([C@@H]2O[C@H](COP(=O)(O)OP(=O)(O)OP(=O)(O)O)[C@@H](O)[C@H]2O)c(=O)[nH]1 [UTP, reference compound] | 45.3 μA/cm^2 | equieffective | – | – | – |
